Measurements from US9067968B2, “Tight junction protein modulators and uses thereof” (The Regents of the University of Colorado, a body corporate, priority 2007, dated 2015).
Bridges are numbered along the chain shown (N, C = ends). Where no end group is shown, it is not given here.

How the values were obtained:
[1] = system: EPH4 cells; assay: Calcium switch: recovery of transepithelial resistance; type: cell-based, mouse; details: peptide 350 μM, removed after 24 hours
Method: To confirm that the LYHY (SEQ ID NO:1) and DFYNP (SEQ ID NO:2) peptides disrupted tight junction properties, a “calcium switch” experiment was performed. The removal of extracellular Ca^+2 and Mg^+2 abolished TER and disrupts intercellular junctions when applied to various epithelia, causing an intracellular redistribution of various cell adhesion proteins, including occludin, away from the apical junction complex. Several epithelial cell lines reorganized the apical junction complex and recovered TER following the replenishment of normal Ca^+2 and Mg^+2 containing medium. The calcium switch was performed on filter-grown EPH4 cells that had achieved a TER of 1000 Ohms·cm^2. After 15 minutes in Ca^+2 and Mg^+2 depleted-medium, TER was reduced to baseline resistance. Cells were then switched back to normal medium containing the occludin peptide, the claudin peptide or the control peptide at a concentration of 350 μM. The control peptide (LYQY (SEQ ID NO:3)) had one amino acid substitution of the occludin peptide and was also circularized with cysteines at each terminus. Peptides were removed after 24 hours. […] TER was measured at 12 and 24 hours following peptide application. Peptides were washed away 24 hours following application and TER was measured every 24 hours thereafter. […]

[2] = system: occludin; assay: Occludin distribution by immunofluorescence after peptide treatment; type: cell-based, mouse; details: mature EPH4 monolayers, 8 hours at 350 μM
Method: To establish the effect of LYHY (SEQ ID NO:1) and DFYNP (SEQ ID NO:2) peptide treatment upon the distribution of endogenous occludin, EPH4 cells were treated with the peptides for 8 hours. The effect of peptides on occludin distribution in mature EPH4 cell monolayers is shown on FIG. 3B, where cell cultures grown on glass slides were treated with LYHY (SEQ ID NO:1), DFYNP (SEQ ID NO:2) or control LYQY (SEQ ID NO:3) peptide for 8 hours at 350 μM. Cells were then stained for occludin. […] Occludin was not as brightly stained at the tight junction in these cells and appeared in intracellular regions outside the tight junction.

[3] = system: EPH4 cells; assay: TUNEL staining of peptide-treated EPH4 cells; type: cell-based, mouse; details: for rate of apoptosis: peptide treatment of mature monolayers
Method: (§1) TUNEL staining was performed using the Roche In Situ Cell Death Detection Kit, TMR red. Cells were fixed in 2% paraformaldehyde and permeabilized in 1% sodium citrate (trisodium salt) containing 0.1% TX-100. Staining was performed as per manufacturers instructions.
(§2) Having established that LYHY (SEQ ID NO:1) and DFYNP (SEQ ID NO:3) peptides impeded recovery of TER following the calcium switch and changed the normal distribution of occludin, the effects of disruption of occludin function on apoptosis was examined. EPH4 mouse mammary epithelial cells and MDCK canine kidney epithelial cells were treated with LYHY (SEQ ID NO:1) peptide for various times and then TUNEL stained.
(§3) FIGS. 4A and 4B show the effects of the LYHY (SEQ ID NO:1) peptide on TUNEL reactivity and TER. In particular, FIG. 4A is a graph showing the number of TUNEL stained EPH4 and MDCK cells that were grown on glass slides and treated with LYHY (SEQ ID NO:1) or control peptide for 6 or 12 hours. FIG. 4B is a graph of TER that was recorded at 0, 24, […], and 72 hours post peptide treatment of EPH4 cells that were grown on filters until the TER reached 1000 (Ohms·cm^2), then treated with solvent, LYHY (SEQ ID NO:1), or control peptides. Peptides were diluted to 350 μM in normal growth medium and placed in the top and bottom chambers. TER was recorded at 0, 24, 48, and 72 hours post peptide treatment. Peptides were replenished daily, after recordings.

[4] = system: EPH4 cells; assay: TER of intact high resistance monolayers during peptide treatment; type: cell-based, mouse; details: 350 μM, 3 days of peptide treatment, replenished daily
Method: as §3
Similarly, treatment of EPH4 cells with a larger occludin mimic peptide caused a change in occludin distribution while treated cells maintained the majority of control TER.

[5] = system: MDCK cells; assay: TUNEL staining of peptide-treated MDCK cells; type: cell-based, canine; details: 6 or 12 hours
Method: as §1, §2
as §3, with “Peptides were replenished daily, after recordings.” left out

[6] = system: activated caspase-8 and activated caspase-3; assay: Activated caspase stains in live peptide-treated cells; type: cell-based, mouse; details: EPH4 cells, 2 h post peptide treatment, 350 μM
Method: Cells were stained with Image-iT®LIVE Green Caspase-8 Detection Kit, Molecular Probes and/or Image-iT®LIVE Red Caspase-3 and -7 Detection Kit, Molecular Probes. Stains were both diluted into differentiation media that contained LYHY (SEQ ID NO:1) or LYQY (SEQ ID NO:3). Cells were stained in the incubator 1 hour, rinsed in […] differentiation media, and processed for immunofluorescence.
Possible mechanism linking occludin disruption to a known means of initiation of apoptosis was then explored using the LYHY (SEQ ID NO:1) peptide. It is believed that the loss of cellular adhesion results in the activation of the death receptor pathway and specify caspase-8 as the initiator caspase in apoptosis occurring due to loss of either cadherin or integrin function. To observe potential activation of the caspase-8 cascade, live EPH4 cells that had been treated with LYHY (SEQ ID NO:1) or control peptide were stained with cell permeable, fluorescent probes that irreversibly bind the proteolytic sites of activated caspase-8 (carboxyfluoresceine-LETD-fmk) and activated caspase-3 (sulphorhodamine-DEVD-fmk). […] Areas showing caspase-3 activation overlapped with areas showing caspase-8 activation, while caspase-8 activation was more widespread and sometimes occurred alone. […]

Row | Substance | TER reached after the calcium switch ([1]; after about 6 days / several days following peptide removal) [Ohms·cm^2] | time to recover initial TER following the calcium switch ([1]; initial TER 1000 Ohms·cm^2) [h] | distribution of endogenous occludin [2] | rate of apoptosis [3] | effect on TER of intact monolayers [4] | TUNEL staining [5] | staining for activated caspases (caspase-8, caspase-3) [6] | TUNEL staining ([3]; EPH4 cells, 6 or 12 hours)
1 | Cyclic H-CLYQYC-OH (flanking Cys, cyclised; Control Peptide Fig. 3A) [control peptide with one amino acid substitution of the occludin peptide, circularized with cysteines at each terminus] | 4000 | ≤ 48 | Only an occasional cell showing non-tight junctional distribution of occludin | – | – | – | – | –
2 | H-CDFYNPC (disulfide 1-7; not fully specified) [peptide derived from the second extracellular loop of several claudins, cyclized via flanking cysteines] | – | – | islands of cells with irregular occludin distribution | increase the rate of apoptosis | did not significantly reduce TER | – | – | –
3 | cyclic H-CLYHYC-OH (flanking Cys, cyclised; TJ Protein Modulator 1) [Occludin second extracellular loop peptide, cyclized via flanking cysteines] | – | – | islands of cells with irregular occludin distribution | increase the rate of apoptosis | did not significantly reduce TER | increased TUNEL staining | increased staining for activated caspases relative to controls | increased TUNEL staining
